Consider three compounds from patent US6969760B2, “Jak kinases and regulation of cytokine signal transduction” (St. Jude Children's Research Hospital, priority 1993, dated 2005).

Values joined by “and” are separate entries in the source; they are usually repeats but may differ in a detail not shown here. Equal values may be shown once.

Experiment [1] addresses T1, Jak2 (Mus musculus, UniProt Q62120).
T1 construct: endogenous in cells; host or cells: mammalian cells stimulated with EPO or IL-3
The experiment can be described thus: In vitro kinase assay with Jak2 immunoprecipitated from cell lysates (32P-gamma-ATP, autoradiography). Format: biochemical. To be noted: genestein at 0.1 mM in the in vitro kinase assay. As to the method: In this assay, purified Jak2 is precipitated from cell lysates using Jak2-specific antisera bound to protein A-sepharose. The immunoprecipitated Jak2 is then washed with kinase buffer (50 mM NaCl, 5 mM MgCl2, 5 mM MnCl2, 0.1 mM Na3VO4, 10 mM HEPES pH 7.4) and subsequently incubated for 30 minutes at room temperature with an equal volume of kinase buffer containing 0.25 mCi/ml ^32P-gamma-ATP. After extensive washing, proteins are eluted with sample buffer for SDS-PAGE and separated on 7% gels. ^32P-containing proteins are then visualized by autoradiography.
Thus, activation of the Jak2 catalytic activity is correlated with the biological activities of these cytokines.

Experiment [2] relates to EPO-induced cell proliferation. The following applies: cited from earlier work.
The subject of experiment [3] is tyrosine kinase activity associated with the CNTF receptor complex (gp130, LIFRβ). The experiment can be described thus: In vitro tyrosine kinase activity associated with the purified CNTF receptor complex. Format: biochemical. To be noted: compared with CNTF-treated intact cells.
Method: Cell lines were passaged and maintained as previously described (Ip et al., Cell 69:1121-1132 (1992). COS cell transfections were carried out by a DEAE protocol (Davis et al., Science 260:1805-1808 (1993)). Plates of cells were starved in serum-free RPMI medium for 2-4 hours, then stimulated with 50 ng/ml of the indicated factor for 5 minutes. Cells were harvested and lysed as previously described (Stahl et al., J. Biol. Chem. 268:7628-7631 (1993)), except that 1% Brij 96 (Sigma) or 1% NP-40 (Boehringer) was used as indicated. Immunoprecipitation, electrophoresis, and anti-phosphotyrosine immunoblotting with monoclonal antibody 4G10 (Upstate Biotechnology) and detection via enhanced chemiluminescence (Amersham) was carried out as previously described (Id). For in vitro kinase assays, the washed beads were incubated for 15 min at room temperature in 20 mM Hepes (pH 7.2), 10 mM MnCl2, 30 mM sodium orthovanadate and 10 MCi of (g-^32P)ATP (NEN DUPONT). Electrophoresis sample buffer was added and the samples were boiled, subjected to SDS PAGE, and electroblotted to PVDF. The membrane was then incubated in 1 M NaOH at 65° C. for 60 min to destroy serine and threonine phosphate before autoradiography.
In experiment [4] the test system is Jak2. The experiment can be described thus: GH-dependent tyrosyl phosphorylation of Jak2 (αJak2 immunoprecipitation, αPY immunoblot) in 3T3-F442A fibroblasts. It is filed as cell-based. As to the method: Jak2 is a tyrosine kinase of the correct size (Mr of ˜130,000; see example 1) to be the GHR-associated kinase and was therefore tested for its ability to be phosphorylated in response to GH. Solubilized proteins from GH-treated 3T3-F442A fibroblasts were immunoprecipitated using antiserum to Jak2 (αJak2) and analyzed by anti-phosphotyrosine antibody (αPY) immunoblot. Cells were incubated with varying physiological concentrations of GH in ranging in 10-fold increments from 0.5 ng/ml to 500 ng/ml (the standard concentration used) for 0, 0.5, 5, 50, and 60 minutes.
Cells were grown to confluence and deprived of serum overnight as described previously (Wang, X. et al., J. Biol. Chem. 268:3573-3579 (1993)). Cells were incubated for the indicated times with hormone or growth factor as indicated at 37° C. in 95% air, 5% CO2, rinsed with three changes of ice-cold 10 mM sodium phosphate (pH 7.4), 137 mM NaCl, 1 mM Na3VO4, and scraped in lysis buffer (50 mM Tris (pH 7.5), 0.1% Triton X-100, 137 mM NaCl, 2 mM EGTA, 1 mM Na3VO4, 1 mM phenylmethylsulfonyl fluoride, 10 μg/ml aprotinin, and 10 μg/ml leupeptin) on ice. Cell lysates were centrifuged at 12,000×g for 10 min, and the resulting supernatants were incubated on ice 90 min with the indicated antibody. […]
(In general: In western blotting, separated proteins are transferred to a membrane and probed.)

T1 sequence (Q62120 whole entry): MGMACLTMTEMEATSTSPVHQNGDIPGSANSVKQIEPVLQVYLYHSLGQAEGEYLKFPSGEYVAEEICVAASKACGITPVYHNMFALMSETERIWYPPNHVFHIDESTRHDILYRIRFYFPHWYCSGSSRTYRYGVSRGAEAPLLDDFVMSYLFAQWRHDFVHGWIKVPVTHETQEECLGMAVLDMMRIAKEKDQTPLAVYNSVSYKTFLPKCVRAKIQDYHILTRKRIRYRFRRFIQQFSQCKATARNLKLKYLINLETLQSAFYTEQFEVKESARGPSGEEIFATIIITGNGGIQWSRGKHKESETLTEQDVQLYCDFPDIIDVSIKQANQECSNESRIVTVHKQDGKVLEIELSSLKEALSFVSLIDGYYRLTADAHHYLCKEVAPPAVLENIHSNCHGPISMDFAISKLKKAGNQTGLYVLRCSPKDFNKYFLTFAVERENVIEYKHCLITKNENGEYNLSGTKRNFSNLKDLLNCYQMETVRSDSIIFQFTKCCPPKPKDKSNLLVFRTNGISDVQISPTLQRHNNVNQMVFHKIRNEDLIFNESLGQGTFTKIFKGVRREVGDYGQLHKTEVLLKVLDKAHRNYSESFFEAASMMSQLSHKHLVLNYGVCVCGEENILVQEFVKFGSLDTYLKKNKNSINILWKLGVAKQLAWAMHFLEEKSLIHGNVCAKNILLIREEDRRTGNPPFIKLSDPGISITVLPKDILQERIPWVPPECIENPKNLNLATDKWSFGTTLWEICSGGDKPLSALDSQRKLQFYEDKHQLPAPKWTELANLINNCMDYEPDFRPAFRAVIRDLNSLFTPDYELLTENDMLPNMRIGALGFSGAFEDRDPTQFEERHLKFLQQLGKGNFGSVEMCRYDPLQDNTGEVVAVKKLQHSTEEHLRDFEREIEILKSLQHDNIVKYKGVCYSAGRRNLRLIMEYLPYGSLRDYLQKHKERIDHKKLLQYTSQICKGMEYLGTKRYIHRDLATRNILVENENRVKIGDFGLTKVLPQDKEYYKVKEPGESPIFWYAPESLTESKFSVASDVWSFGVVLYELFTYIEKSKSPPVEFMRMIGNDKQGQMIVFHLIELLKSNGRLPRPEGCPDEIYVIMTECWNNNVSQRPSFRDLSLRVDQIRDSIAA

On to `O=c1c(-c2ccc(O)cc2)coc2cc(O)cc(O)c12` [genestein], for which the “reduction in the tyrosine kinase activity of Jak2” value on Jak2 [1] was found to be 2 fold. For the same compound, the “effect on ability of EPO to stimulate cell growth” value in experiment [2] was “inhibit the ability of EPO to stimulate cell growth”.

`CN[C@@H]1C[C@H]2O[C@@](C)([C@@H]1OC)n1c3ccccc3c3c4c(c5c6ccccc6n2c5c31)C(=O)NC4` [staurosporine]: the “sensitivity of receptor-associated in vitro kinase activity to staurosporine” value in experiment [3] was “same sensitivity to staurosporine as that observed upon addition of CNTF to intact cells”.

Consider “GH: Recombinant human GH (hGH) provided by Eli Lilly”, for which, in the experiment on Jak2 [4], the “earliest time at which GH-dependent tyrosyl phosphorylation of Jak2 was clearly evident” value stood at 30 s; the “lowest GH concentration at which tyrosyl phosphorylation of Jak2 was clearly evident” value was 5.0 ng/ml and 230 pM.
